In PMC11962044, “Experimental and theoretical studies on structural changes in the microtubule affinity-regulating kinase 4 (MARK4) protein induced by N-hetarenes: a new class of therapeutic candidates for Alzheimer’s disease” (Frontiers in Medicine, 2025):
Like-named read-outs stand apart in the source and are kept apart here.

Assays:
MARK4 [1] = biological target: T1, MARK4 (Homo sapiens, UniProt Q96L34); assay: ATPase inhibition assay (Malachite green) with purified MARK4; type: biochemical; settings: MARK4 5 μM, ATP 200 μM, ligand 0–10 μM, 1 h at 25°C, read-out: IC50 against MARK4
T1 sequence (Q96L34 1-752): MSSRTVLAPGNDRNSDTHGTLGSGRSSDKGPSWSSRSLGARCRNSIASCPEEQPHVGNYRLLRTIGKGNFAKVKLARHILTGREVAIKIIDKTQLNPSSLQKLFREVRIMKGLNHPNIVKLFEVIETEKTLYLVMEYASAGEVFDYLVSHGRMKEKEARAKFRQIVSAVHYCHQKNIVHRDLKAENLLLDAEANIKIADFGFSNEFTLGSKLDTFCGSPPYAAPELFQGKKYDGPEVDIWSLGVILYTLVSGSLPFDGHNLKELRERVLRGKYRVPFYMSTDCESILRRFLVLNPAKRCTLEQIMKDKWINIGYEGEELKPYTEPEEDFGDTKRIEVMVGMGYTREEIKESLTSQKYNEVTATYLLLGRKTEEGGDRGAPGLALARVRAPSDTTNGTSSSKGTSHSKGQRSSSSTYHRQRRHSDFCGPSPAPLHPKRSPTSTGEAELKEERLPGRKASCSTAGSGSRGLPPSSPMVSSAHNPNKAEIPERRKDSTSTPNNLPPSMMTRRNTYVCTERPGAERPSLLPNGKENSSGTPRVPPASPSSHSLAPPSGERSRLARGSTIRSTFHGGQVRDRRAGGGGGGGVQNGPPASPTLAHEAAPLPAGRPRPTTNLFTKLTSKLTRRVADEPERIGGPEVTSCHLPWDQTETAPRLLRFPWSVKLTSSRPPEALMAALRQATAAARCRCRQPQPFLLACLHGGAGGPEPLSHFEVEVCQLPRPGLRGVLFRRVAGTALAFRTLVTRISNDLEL
Protocol: Purified MARK4 was used to conduct ATPase inhibition experiment following the reported method ([18], [30]). The concentration of the purified protein used was 5 μM, the ligand concentration was 0–10 μM and the substrate (ATP) was 200 μM. The ligand concentration was increased gradually against a given concentration of MARK4. The experiment involved combining MARK4 with freshly prepared ATP, resulting in a final reaction mixture volume of 100 μL. This mixture was incubated for 1 h at 25°C. This is followed by the addition of Malachite green solution (200 μL) to quench the reaction. The samples were allowed to incubate at room temperature for color development. Finally, the reaction mixture (100 μL) was filled into 96-well plates and analyzed using a multiscan ELISA reader (λ = 620 nm). All experimental reactions were conducted in triplicate to ensure statistical reliability.

MARK4 enzyme = settings: cited from earlier work
MARK4 [2] = biological target: T1, MARK4; assay: Fluorescence quenching binding assay; settings: modified Stern-Volmer equation; excitation 280 nm; read-out: binding constant (K) (converted)
Protocol: A fluorescence-based binding assay was conducted to evaluate the binding efficiency of ligands. During the titration, the concentration of the pure MARK4 protein was kept constant while increasing concentrations of the ligand ([31]). The emission data were collected using a Jasco FP-6200 spectrofluorimeter (Japan), with a slit width of 10 nm and medium sensitivity. The samples were excited at 280 nm, and the emission spectra were recorded. Blank subtracted spectra are reported, and each measurement was performed in triplicate. For fluorescence values, we took the inner filter effect into account ([32]). The binding constant (K) was calculated using the Stern-Volmer (SV) (Equations 1, 2). (1) F0/F=1+KsvC (2) logF0−F/F=logK+nlogC Where F0 denotes the fluorescence intensity of the protein in the absence of ligands, whereas F indicates the fluorescence intensity when ligands are present. K represents the binding constant, n indicates the number of binding sites, and C refers to the concentration of the ligand.

[3] = read-out: IC50 MARK4 enzyme in vitro

SMILES | IC50 (MARK4 [1]) | other results
N=C(N)N1CCN(c2cc(-c3ccc(F)c(Cl)c3)ncn2)CC1 [Compound 7, 4-(6-(3-Chloro-4-fluorophenyl)pyrimidin-4-yl)piperazine-1-carboximidamide] | 16.5 ± 1.71 µM | 
N=C(N)N1CCN(c2cc(-c3ccc(OC(F)(F)F)cc3)ncn2)CC1 [Compound 10, 4-(6-(4-(Trifluoromethoxy)phenyl)pyrimidin-4-yl)piperazine-1-carboximidamide] | 7.28 ± 0.49 µM | 
N=C(N)N1CCN(c2cc(-c3ccc(C(F)(F)F)cc3)ncn2)CC1 [Compound 8, 4-(6-(4-(Trifluoromethyl)phenyl)pyrimidin-4-yl)piperazine-1-carboximidamide] | 15.8 ± 0.92 µM | 
CCN(C)C(=O)Oc1cccc([C@H](C)N(C)C)c1 [rivastigmine] |  | IC50 (MARK4 enzyme; [3]): 6.74 µM
Cc1ccc(-c2cc(N3CCN(C(=N)N)CC3)ncn2)cc1 [Compound 5, 4-(6-(p-Tolyl)pyrimidin-4-yl)piperazine-1-carboximidamide] | 5.35 ± 0.22 µM | Kd (MARK4 [2]): 6.67 µM
N=C(N)N1CCN(c2cc(-c3ccc(Cl)c(Cl)c3)ncn2)CC1 [Compound 6, 4-(6-(3,4-Dichlorophenyl)pyrimidin-4-yl)piperazine-1-carboximidamide] | 11.8 ± 1.19 µM | 
COc1cc2c(cc1OC)C(=O)C(CC1CCN(Cc3ccccc3)CC1)C2 (centres unmarked) [donepezil] |  | IC50 (MARK4 enzyme; [3]): 5.3 µM
O=C(/C=C/c1ccc(O)c(O)c1)O[C@H](Cc1ccc(O)c(O)c1)C(=O)O [Rosmarinic acid] |  | IC50 (MARK4 enzyme; reference inhibitor of MARK4, read-out: IC50 of the reference inhibitor): ~6.2 µM
N=C(N)N1CCN(c2cc(-c3cc4ccccc4s3)ncn2)CC1 [Compound 9, 4-(6-(benzo[b]thiophen-2-yl)pyrimidin-4-yl)piperazine-1-carboximidamide] | 6.68 ± 0.8 µM | Kd (MARK4 [2]): 8.77 µM
